# From patent publication US9849113B2, “Methods of treating α adrenergic mediated conditions” (Allergan, Inc., priority 2008, dated 2017)
# What was measured:
# Chung model rats = experiment: Chung model of chronic pain (spinal nerve ligation), tactile allodynia by von Frey hairs; assay type: in vivo, rat; details: single oral dose, FIG. 1
# Protocol: Various concentrations of N-(2,3-dichlorobenzyl)-4,5-dihydro-1H-imidazol-2-amine were administered orally to Chung model rats. A model in accordance with Kim and Chung 1992, Pain […], pp 355-363 (Chung model), for chronic pain (in particular peripheral neuropathy) involves the surgical ligation of the L5 (and optionally the L6) spinal nerves on one side in experimental animals. Rats recovering from the surgery gain weight and display a level of general activity similar to that of normal rats. However, these rats develop abnormalities of the foot, wherein the hindpaw is moderately everted and the toes are held together. More importantly, the hindpaw on the side affected by the surgery appears to become sensitive to pain from low-threshold mechanical stimuli, such as that producing a faint sensation of touch in a human, within about 1 week following surgery. […]
# Tactile allodynia is measured prior to and 30 minutes after drug administration using von Frey hairs that are a series of fine hairs with incremental differences in stiffness. […] The applied force has been calculated to range from 0.41 to 15.1 grams. […] The 50% paw withdrawal threshold is determined using the method of Dixon, W. J., Ann. […] The post-drug threshold is compared to the pre-drug threshold and the percent reversal of tactile sensitivity is calculated based on a normal threshold of 15.1 grams.
# male ddC treated rats = experiment: Dideoxycytidine (ddC) model of neuropathic pain, allodynia by von Frey hairs; assay type: in vivo, rat; details: for % Allodynia Reversal: 15 min post dose / % Allodynia Reversal: 30 min post dose / % Allodynia Reversal: 60 min post dose / % Allodynia Reversal: 120 min post dose: mean ± SEM
# Protocol: The ddC Model in the rat is a relatively new model of neuropathic pain discovered from clinical treatment of the AIDS virus. […] The experimental animal model in the rat for neuropathic pain by ddC injection manifests symptoms of human patients with causalgia. It is considered predictive of clinical activity against neuropathic pain (Joseph et al, 2004). Compound N-(2,3-dichlorobenzyl)-4,5-dihydro-1H-imidazol-2-amine was tested in this ddC model of allodynic pain. The compound was administered intraperitoneally to male ddC treated rats.
# The animals are injected intraperitoneally (IP) with 25 mg/kg dideoxycytidine (ddC) using a sterile 30 gauge needle. Approximately 3 weeks after the ddC injection a painful neuropathy develops causing sensitivity to light touch on the animals' extremities. This neuropathy can last for 2-3 months. The animals show no spontaneous pain, only a heightened response to mechanical stimuli (von Frey hair stimulation). The allodynia is quantitated in the animals receiving ddC injections by stimulation with a series of 8 Von Frey hairs on the mid planter area of the hind paws in the up-down manner described by Dixon (Dixon, 1980).
# Male Sprague-Dawley rats (Charles River, Wilmington, Mass.) weighing approximately 150-300 grams were used for these studies. All experimental animals received N-(2,3-dichlorobenzyl)-4,5-dihydro-1H-imidazol-2-amine or vehicle in a single acute IP dose. In all studies, baseline measurements were taken prior to drug administration and then at 15, 30, 60 and 120 minutes post acute IP dosing (vehicle or N-(2,3-dichlorobenzyl)-4,5-dihydro-1H-imidazol-2-amine). The % allodynia reversal is calculated as: [(Postdrug threshold—Predrug threshold)/(15-Predrug threshold)]×100.
# N-(2,3-dichlorobenzyl)-4,5-dihydro-1H-imidazol-2-amine was dissolved in 42% DMSO (dimethyl sulfoxide; Sigma, St. Louis, Mo.) at a concentration of 3 mg/ml. This stock solution was kept frozen at −20° C., was thawed on the day of the study and diluted in dd-H2O to concentrations ranging from 0.01-0.1 mg/ml for IP dosing (dosing volume=1 ml/kg). The vehicle is dd-H2O for these studies.
# Data were compiled and analyzed using Microsoft Excel and/or Kaleidagraph. Data are expressed as mean± standard error of the mean. Comparisons between drug treated and vehicle groups were made using a two-tailed, 2-sample, unpaired t-test. Comparisons between baselines (pre-drug) and post-drug time points were made using a two-tailed, 2-sample, paired t-test.
structure (smiles),measurement,setting,value
"Clc1cccc(CNC2=NCCN2)c1Cl [N-(2,3-dichlorobenzyl)-4,5-dihydro-1H-imidazol-2-amine]",Time of decrease of allodynia reversal to baseline,Chung model rats,about 120 minutes
same,Time of peak percent allodynia reversal,Chung model rats,30 min
same,% Allodynia Reversal: 15 min post dose,"male ddC treated rats; 0.01 mg/kg IP, n = 6",1.8 ± 1.6%
same,% Allodynia Reversal: 30 min post dose,"male ddC treated rats; 0.01 mg/kg IP, n = 6",3.0 ± 1.7%
same,% Allodynia Reversal: 60 min post dose,"male ddC treated rats; 0.01 mg/kg IP, n = 6",1.5 ± 2.0%
same,% Allodynia Reversal: 120 min post dose,"male ddC treated rats; 0.01 mg/kg IP, n = 6",0.1 ± 1.3%
same,% Allodynia Reversal: 15 min post dose,"male ddC treated rats; 0.03 mg/kg IP, n = 6",34 ± 3.9 %
same,% Allodynia Reversal: 30 min post dose,"male ddC treated rats; 0.03 mg/kg IP, n = 6",67%
same,% Allodynia Reversal: 60 min post dose,"male ddC treated rats; 0.03 mg/kg IP, n = 6",20 ± 3.7 %
same,% Allodynia Reversal: 120 min post dose,"male ddC treated rats; 0.03 mg/kg IP, n = 6",2.0 ± 2.6%
same,% Allodynia Reversal: 30 min post dose,"male ddC treated rats; 0.03 mg/kg IP, n = 6, listed as 200762",67 ± 9.0 %
same,% Allodynia Reversal: 15 min post dose,"male ddC treated rats; 0.1 mg/kg IP, n = 6",58 ± 9.1 %
same,% Allodynia Reversal: 30 min post dose,"male ddC treated rats; 0.1 mg/kg IP, n = 6",86%
same,% Allodynia Reversal: 60 min post dose,"male ddC treated rats; 0.1 mg/kg IP, n = 6",34 ± 2.5 %
same,% Allodynia Reversal: 120 min post dose,"male ddC treated rats; 0.1 mg/kg IP, n = 6",0.9 ± 1.2%
same,% Allodynia Reversal: 30 min post dose,"male ddC treated rats; 0.1 mg/kg IP, n = 6, listed as 200762",86 ± 6.3 %
same,Minimal statistically significant efficacious dose,"male ddC treated rats; IP, male rats",0.03 mg/kg
same,No-effect dose,"male ddC treated rats; IP, male rats",0.01 mg/kg
